The data set is described as follows: Analysis of solubility (UV-Vis calibration at 361 nm, saturated solution at room temperature). The data set is classed as physicochemical. As to conditions: for solubility: thermodynamic from solid. On the procedure:
First, the compound was dissolved in 2 mL of deionized water (DI water), and then the UV-Vis spectrum of the solution was measured. 1 mL of the solution was taken out, 1 mL of deionized water was added to reduce the concentration by half, and then the UV-Vis spectrum was measured. This process was repeated several times. A calibration curve was drawn using λ=361 nm (π-π* transition) from the UV-Vis spectrum. At this time, a UV-Vis spectrum of deionized water was used for baseline measurement. […] The solution was filtered, and then the total volume of the solution was recorded. […] of the filtrate was taken, and then deionized water was added to bring the volume to 2 mL. Thereafter, 1 mL of the solution was taken and fresh deionized water was added to dilute the solution to a volume of 2 mL. The UV-Vis spectrum was recorded until the absorbance at λ=361 nm was smaller than 1 a.u. The linear equation of the calibration curve was used to calculate the concentration of the solution, and the molarity equation was used to estimate the maximum solubility of the compound.

Read-outs that look alike come from different tables or passages of the source.

The results in this text go back to patent US20240243327A1, “NAPHTHALENE DIIMIDE COMPOUND AND REDOX FLOW BATTERY CONTAINING THE SAME” (Korea Advanced Institute of Science and Technology, priority 2023, published 2024).

`CN1C(=O)c2ccc3c4c(ccc(c24)C1=O)C(=O)N(C)C3=O` [Comparative Example 1, 2,7-dimethylbenzo [lmn] [3,8] phenanthroline-1,3,6,8 (2H,7H) -tetraone]: the solubility in water result (deionized water, room temperature, result in words) is on record as “substantially insoluble in water”.

Consider `O=C(O)CN1C(=O)c2ccc3c4c(ccc(c24)C1=O)C(=O)N(CC(=O)O)C3=O` [Comparative Example 2, 2,2′-(1,3,6,8-tetraoxo-1,3,6,8-tetrahydrobenzo [lmn] [3,8]phenanthroline-2,7-diyl)diacetate Potassium], for which the solubility (saline or isotonic, 1 M KCl solution as printed, read-out: solubility in the 1 M KCl solution) was roughly 25 mM.

Turning to `C[N+](C)(C)CCC[N+](C)(C)CCCN1C(=O)c2ccc3c4c(ccc(c24)C1=O)C(=O)N(CCC[N+](C)(C)CCC[N+](C)(C)C)C3=O` [Example 1], the solubility reads like this: (1.5 M KCl aqueous solution, saline or isotonic, KCl aqueous solution (method: 1.5 M KCl), room temperature, read-out: solubility in the KCl solution) roughly 1200 mM; (deionized water, room temperature, read-out: solubility in water) roughly 1500 mM.

In general, solubility refers to the concentration that dissolves in the medium under given conditions.
